Results as given in ChEMBL document CHEMBL5150060 (J Med Chem, 2022).
Calls of active or inactive are those of the source.

Legend:
[1] = system: Mus musculus; assay: Immuno-modulatory activity in C57BL/6 mouse assessed as increase in proportion of CD3+ cells in spleen at 10 mg/kg, ip administered 5 days per week for 2 weeks by flow cytometry analysis; format: functional, organism-based
[2] = target: T1, Histone deacetylase 8 (Homo sapiens) (UniProt Q9BY41); assay: Inhibition of HDAC8 in human Jurkat T cells assessed as upregulation of IL-7R expression at 10 uM after 6 to 12 hrs by RT-qPCR analysis; format: cell-based; details: time 6-12 hrs
T1 sequence (whole entry): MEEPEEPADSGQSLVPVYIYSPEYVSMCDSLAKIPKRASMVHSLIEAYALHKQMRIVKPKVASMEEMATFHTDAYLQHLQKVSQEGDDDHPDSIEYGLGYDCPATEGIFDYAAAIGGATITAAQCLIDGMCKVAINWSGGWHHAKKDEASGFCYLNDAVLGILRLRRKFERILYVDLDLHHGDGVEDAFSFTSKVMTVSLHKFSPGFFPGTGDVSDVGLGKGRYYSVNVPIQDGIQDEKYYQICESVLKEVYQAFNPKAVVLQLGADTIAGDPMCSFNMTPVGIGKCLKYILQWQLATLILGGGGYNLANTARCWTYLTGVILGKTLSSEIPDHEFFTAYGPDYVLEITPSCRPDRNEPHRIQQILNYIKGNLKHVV

[3] = Stability of compound in DMEM/DMSO/acetonitrile at pH 7.4 measured after 48 hrs by HPLC analysis; format: physicochemical; details: read-out: Stability
[4] = target: T2, Protein deacetylase HDAC6 (Homo sapiens, UniProt Q9UBN7); assay: Inhibition of recombinant human HDAC6 (unknown origin)
T2 sequence (Q9UBN7 whole entry): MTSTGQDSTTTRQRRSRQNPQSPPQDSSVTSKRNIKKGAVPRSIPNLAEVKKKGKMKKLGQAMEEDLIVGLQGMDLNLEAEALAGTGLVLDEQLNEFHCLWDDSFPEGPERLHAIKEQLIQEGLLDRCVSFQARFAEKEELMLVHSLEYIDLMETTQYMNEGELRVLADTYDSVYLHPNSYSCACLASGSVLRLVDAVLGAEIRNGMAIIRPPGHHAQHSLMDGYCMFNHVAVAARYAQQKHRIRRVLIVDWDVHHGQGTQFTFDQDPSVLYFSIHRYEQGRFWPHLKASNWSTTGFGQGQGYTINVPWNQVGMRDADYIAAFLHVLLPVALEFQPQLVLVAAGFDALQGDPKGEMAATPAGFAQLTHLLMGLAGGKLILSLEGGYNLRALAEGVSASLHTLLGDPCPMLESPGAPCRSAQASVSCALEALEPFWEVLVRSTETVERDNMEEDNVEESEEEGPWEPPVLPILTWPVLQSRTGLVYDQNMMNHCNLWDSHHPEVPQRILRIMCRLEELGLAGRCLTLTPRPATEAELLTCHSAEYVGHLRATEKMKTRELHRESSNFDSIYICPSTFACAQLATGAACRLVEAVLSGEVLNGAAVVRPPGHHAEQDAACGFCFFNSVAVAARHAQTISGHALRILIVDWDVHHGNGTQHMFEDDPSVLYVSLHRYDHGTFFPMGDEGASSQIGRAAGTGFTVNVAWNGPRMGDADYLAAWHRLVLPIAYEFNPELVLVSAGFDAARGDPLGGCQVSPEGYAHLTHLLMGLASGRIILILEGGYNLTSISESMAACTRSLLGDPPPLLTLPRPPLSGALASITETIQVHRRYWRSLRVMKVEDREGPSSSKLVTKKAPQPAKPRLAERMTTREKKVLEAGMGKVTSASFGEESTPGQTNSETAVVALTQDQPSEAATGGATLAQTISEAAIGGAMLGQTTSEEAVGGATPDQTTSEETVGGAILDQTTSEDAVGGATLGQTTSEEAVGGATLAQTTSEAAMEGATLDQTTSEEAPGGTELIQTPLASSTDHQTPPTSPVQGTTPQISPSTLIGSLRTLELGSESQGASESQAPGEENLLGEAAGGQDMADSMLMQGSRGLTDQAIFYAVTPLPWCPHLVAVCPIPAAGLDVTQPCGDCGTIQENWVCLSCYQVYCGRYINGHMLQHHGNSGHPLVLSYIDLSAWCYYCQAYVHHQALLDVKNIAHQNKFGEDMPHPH

[5] = target: T1, Histone deacetylase 8 (Homo sapiens); assay: Inhibition of HDAC8 in human Jurkat T cells assessed as upregulation of IL23 expression at 10 uM after 6 to 12 hrs by RT-qPCR analysis; format: cell-based; details: time 6-12 hrs
[6] = target: Histone deacetylase 3 (Homo sapiens, UniProt O15379); assay: Inhibition of recombinant human HDAC3 using p53 (Ac-RHKK(Acetyl)-AMC) as substrate preincubated for 5 mins followed by substrate addition and measured after 30 mins by fluorescence based analysis
[7] = target: T1, Histone deacetylase 8 (Homo sapiens); assay: Inhibition of HDAC8 in human Jurkat T cells assessed as upregulation of IL23 expression after 6 hrs by RT-qPCR analysis; format: cell-based; details: dose 0.1-10 µM, DDE = dose-dependent effect
[8] = target: T1, Histone deacetylase 8 (Homo sapiens); assay: Inhibition of HDAC8 in human Jurkat T cells assessed as upregulation of GATA3 expression after 6 hrs by RT-qPCR analysis; format: cell-based; details: dose 0.1-10 µM, DDE = dose-dependent effect
[9] = target: T1, Histone deacetylase 8 (Homo sapiens); assay: Inhibition of HDAC8 in human Jurkat T cells assessed as upregulation of IL10 expression at 10 uM after 6 to 12 hrs by RT-qPCR analysis; format: cell-based; details: time 6-12 hrs
[10] = Toxicity in C57BL/6 mouse assessed as change in kidney weight at 5 to 10 mg/kg, ip administered 5 days per week for 2 weeks by H and E staining based assay; format: organism-based; details: in vivo, 336 h, dose 5-10 mg/kg
[11] = Toxicity in C57BL/6 mouse assessed as change in body weight at 5 to 10 mg/kg, ip administered 5 days per week for 2 weeks; format: organism-based; details: in vivo, 336 h, dose 5-10 mg/kg
[12] = system: Mus musculus; assay: Immuno-modulatory activity in C57BL/6 mouse assessed as increase in proportion of CD8+ cells in spleen at 10 mg/kg, ip administered 5 days per week for 2 weeks by flow cytometry analysis; format: functional, organism-based
[13] = Toxicity in C57BL/6 mouse assessed as change in heart weight at 5 to 10 mg/kg, ip administered 5 days per week for 2 weeks by H and E staining based assay; format: organism-based; details: in vivo, 336 h, dose 5-10 mg/kg
[14] = Stability of compound in DMEM/DMSO/acetonitrile at pH 7.4 measured after 12 hrs by HPLC analysis; format: physicochemical; details: read-out: Stability
[15] = target: T1, Histone deacetylase 8 (Homo sapiens); assay: Inhibition of HDAC8 in human Jurkat T cells assessed as upregulation of IL10 expression after 6 hrs by RT-qPCR analysis; format: cell-based; details: dose 0.1-10 µM, DDE = dose-dependent effect
[16] = system: Mus musculus; assay: Immuno-modulatory activity in C57BL/6 mouse assessed as increase in IL2 expression in CD4+ cells at 10 mg/kg, ip administered 5 days per week for 2 weeks by RT-qPCR analysis; format: functional, organism-based
[17] = target: T1, Histone deacetylase 8 (Homo sapiens); assay: Inhibition of HDAC8 in human Jurkat T cells assessed as upregulation of […] expression at 10 uM after 6 to 12 hrs by RT-qPCR analysis; format: cell-based; details: time 6-12 hrs
[18] = Stability of compound in DMEM/DMSO/acetonitrile at pH 7.4 measured after 24 hrs by HPLC analysis; format: physicochemical; details: read-out: Stability
[19] = Toxicity in C57BL/6 mouse assessed as change in intestine weight at 5 to 10 mg/kg, ip administered 5 days per week for 2 weeks by H and E staining based assay; format: organism-based; details: in vivo, 336 h, dose 5-10 mg/kg

Histone deacetylase 3, sequence (O15379 whole entry): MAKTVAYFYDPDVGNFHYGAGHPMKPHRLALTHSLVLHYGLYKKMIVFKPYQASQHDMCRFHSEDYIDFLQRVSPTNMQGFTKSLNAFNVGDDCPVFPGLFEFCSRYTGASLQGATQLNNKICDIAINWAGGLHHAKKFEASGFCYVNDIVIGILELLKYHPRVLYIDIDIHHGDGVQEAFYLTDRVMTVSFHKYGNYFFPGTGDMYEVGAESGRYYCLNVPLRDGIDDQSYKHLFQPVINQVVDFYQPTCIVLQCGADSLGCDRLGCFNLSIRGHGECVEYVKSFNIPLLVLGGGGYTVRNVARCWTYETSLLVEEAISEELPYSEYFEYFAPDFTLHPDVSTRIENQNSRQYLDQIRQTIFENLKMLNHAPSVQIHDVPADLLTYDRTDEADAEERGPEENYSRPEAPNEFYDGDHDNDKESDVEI

CCCCCCNNC(=O)c1ccc(-c2ccc(CNC(C)=O)cc2)cc1
105%: remaining at 24 h [18]
> 20 µM: IC50 [4] | IC50 [6]
Non-Toxic: Activity [10] | Activity [11] | Activity [13] | Activity [19]
active: Activity [1] | inhibition [2] | inhibition [5] | inhibition [7] Dde | inhibition [8] Dde | inhibition [9] | Activity [12] | inhibition [15] Dde | Activity [16] | inhibition [17]
104%: remaining at 48 h [3] | remaining at 12 h [14]
